Measured values as given in US20230295086A1, “NOVEL PSILOCIN DERIVATIVES HAVING PRODRUG PROPERTIES” (COMPASS […], priority 2020, published 2023).
Marks after values point to notes of the source that are not given here.

Tests used:
[1] = Stability of psilocin carbonates in 1% HCl; format: physicochemical; conditions: 37° C., approximately 26 hours, LC-MS
Description: 4 mg of each test compound was diluted in 2 ml distilled water to give a solution of 2 mg/ml. 2 ml of test compound solutions were then added to 2 ml of 2% (v/v) HCl in distilled water, yielding a final HCl concentration of […] (pH 0.5). Test solutions were incubated at 37° C. with continuous stirring for approximately 26 hours. Concentrations of parent compound and psilocin were analyzed at various timepoints using LC-MS. Concentrations of both parent prodrug and psilocin liberated were expressed relative to the starting concentration of parent prodrug.

[2] = Intake study: serum concentrations after oral ingestion by two volunteers; conditions: for c(Psilocin): study 2
Description: Two volunteers (1 M, 1 F) ingested about 1 mg of each one of P1 and M1 (Study 1) and P2 and M2 (Study 2) in gelatin capsules (exact amounts in Tables 3 and 4). One blood sample was collected prior to ingestion of the substances and served as a zero control. After ingestion samples were collected for about 8 h with increasing time intervals between sample taking (exact protocol in Tables 4 and 5). […] The obtained sera were transferred in plastic tubes and NaF (ca. 30 mg) and ascorbic acid (ca. 5 mg) were added to increase analytes stability.
200 μL serum were spiked with an internal standard solution (10 μL) and ACN (600 μL) was added to precipitate soluble proteins. Before mixing thoroughly ammonium formate (10 M, 200 μL) was added separate the aqueous from the organic phase. After centrifugation (6 min, 4,000×g), 500 μL of the organic phase were transferred into another vial and evaporated to dryness at 40° C. under a gentle stream of nitrogen. Samples were reconstituted in 100 μL mobile phase (A/B, 90/10, v/v) and used for analysis. For quantification a blank sample and a six point calibration (0.5, 1.0, 2.0, 5.0, 10, 20 ng/mL) in calf serum were prepared as described above.
The HPLC-MS system consisted of a Nexera X2 UHPLC system composed of three LC-30AD pumps, a DGU-30A3 degasser, a SIL-30AC autosampler, a CTO-10AS column oven and a CBM-20A controller (Shimadzu, Duisburg, Germany) coupled to a QTRAP 6500plus triple quadrupole linear ion trap mass spectrometer equipped with a TurbolonSpray Interface (Sciex, Darmstadt, Germany). The MS was operated in positive electrospray ionization mode. Data acquisition was performed in scheduled multiple reaction monitoring mode (detection window: 60 s) using Analyst software (version 1.7). MS parameters (declustering potential, entrance potential, collision energy, and collision cell exit potential) were optimized for all substances to obtain the best possible signal intensities (summary of the MRM parameters are given in Table 5). Ion source temperature and ion source voltage were set to 550° C. and +5500 V, respectively. Dwell time was 20 ms for every MRM transition. Curtain gas (N2) pressure was 35 psi, ion source gas 1 and 2 (compressed air) pressure were 50 and 60 psi, respectively, and collision gas (N2) pressure was set to “high.” Chromatographic separation was performed on a Kinetex® biphenyl column (100×2.1 mm, 2.6 μm particle size, Phenomenex, Aschaffenburg, Germany) with a corresponding guard column (SecurityGuard™ ULTRA Cartridges UHPLC Biphenyl for 2.1 mm ID columns, Phenomenex, Aschaffenburg, Germany). The autosampler and the column oven temperature were set to 10° C. and 40° C., respectively. The injection volume was 10 μL.

[3] = Micro shake flask Log D; conditions: Octanol:PBS 1:9, pH 7.4, 10 μM, six replicates; novel compounds as hemifumarate
Description: 6 replicates of each test compound were incubated at 10 μM in a 1:9 ratio of Octanol: PBS at pH 7.4. Following a two hour incubation at room temperature shaking at 600 rpm, the incubation plate was centrifuged for 15 minutes to separate the layers and then two aliquots were removed from the PBS layer. The first was left neat and the second was diluted 10-fold to give dilute samples. Internal standards were added to both the calibration curve and the PBS incubation samples for analysis on LC MS/MS.
All 6 replicates of the neat samples were averaged to give one value for each, with the same calculation performed for the dilute sample values.

[4] = molecular target: T1, serotonin 2A (5-HT2A) receptor (Mus musculus, UniProt P35363); assay: Head twitch response (HTR) in mice; format: in vivo, male C57BL/6J mice; conditions: oral gavage 0.3 mg/kg
T1 construct: tissue Charles River UK; host or cells: whole living male C57BL/6J mice (in vivo, oral gavage)

[5] = Shake flask Log D assay (Example 11); format: physicochemical; conditions: 1-Octanol / 100 mM PB pH 7.4, shake flask, LC-MS/MS; test compound as hydrochloride
Description: Test and control compounds were diluted to 10 mM in DMSO. 2 μl of each stock solution was aliquoted into tubes in duplicate. 1-Octanol saturated phosphate buffer (PB) (pH 7.4) was prepared by adding 1-Octanol into 100 ml of 100 mM PB (7.4). PB saturated 1-Octanol was prepared by adding 10 ml of 100 mM PB (7.4) into 100 ml of 1-Octanol. 149 μl of each solution was aliquoted into the corresponding tubes. These were then mixed vigorously for 2 minutes and shaken (800 rpm) at room temperature for one hour. The appropriate volume of buffer and 1-Octanol layer samples was aliquoted and diluted, before detection using LC-MS/MS.
Log D was calculated according to the following equation: […]

[6] = Kinetic solubility assay (Example 11); conditions: 50 mM PB pH 7.4, target 200 μM, 24 hours shaking at room temperature, UPLC; test compound as hydrochloride
Description: Test and control compounds were diluted to 10 mM in DMSO and then further diluted 1 in 50 in 50 mM PB (pH 7.4) to a target concentration of 200 μM. Samples were vortexed for at least 2 minutes and then left to shake (800 rpm) at room temperature for 24 hours. Visual appearance was assessed before centrifugation and injection into a UPLC system to measure concentration. […] Each compound was tested in duplicate.

[7] = Pharmacokinetics in the mouse (plasma psilocin); format: in vivo, male C57BL/6J mice; conditions: IV, 0.3 mg/kg
Description: 27 male C57BL/6J mice weighing 22-25 g at time of purchase (Charles River UK) were group housed (3 s) in polypropylene cages. Mice were maintained on a normal phase 12 hr light-dark cycle (lights on from 07:00-19:00) with ad libitum access to standard pelleted diet (Envigo 2018) and filtered tap water. The holding room was maintained at 21±4° C. with a relative humidity of 55±15%.
Mice were weighed on the day of dosing and identified by a tail mark using a permanent marker pen. Food was not withdrawn on the day of dosing. […] The remaining animals were divided into two cohorts, with animals in the first cohort receiving a single oral dose of one of the test compounds and animals in the second cohort receiving a single intravenous dose (in a lateral tail vein) of one of the test compounds. Following treatment, animals dosed orally were bled by venesection from the lateral tail vein at 5, 15, 30, 45, 60, 120, and 240 minutes post-dosing. Animals dosed intravenously were bled by venesection from the opposite lateral tail vein at the same timepoints. […] All compounds were formulated in saline and dosed in a volume of 5 ml/kg.
25 μl of blood was collected per animal per timepoint. […] Psilocin levels within samples were determined using LC-MS/MS. All pharmacokinetic parameters were calculated manually. […]

[8] = serum, oral intake of about 1 mg prodrug, mean of 2 volunteers

T1 sequence (P35363 whole entry): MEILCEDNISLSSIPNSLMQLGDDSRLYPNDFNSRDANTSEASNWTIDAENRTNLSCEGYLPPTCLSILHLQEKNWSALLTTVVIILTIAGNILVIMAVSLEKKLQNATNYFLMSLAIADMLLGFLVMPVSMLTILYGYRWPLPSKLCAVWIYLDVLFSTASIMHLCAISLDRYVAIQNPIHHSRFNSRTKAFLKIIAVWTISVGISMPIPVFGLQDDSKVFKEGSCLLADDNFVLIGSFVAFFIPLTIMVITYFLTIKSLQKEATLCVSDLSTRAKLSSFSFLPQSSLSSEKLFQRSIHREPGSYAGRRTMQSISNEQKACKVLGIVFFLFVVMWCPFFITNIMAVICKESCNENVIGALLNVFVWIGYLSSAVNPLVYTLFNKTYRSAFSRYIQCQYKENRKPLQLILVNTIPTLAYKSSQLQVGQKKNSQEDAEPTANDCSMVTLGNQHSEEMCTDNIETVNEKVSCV

CN(C)CCc1c[nH]c2cccc(OC(=O)OC(C)(C)C)c12 [Psilocin-4-yl-tert-butylcarbonate, psilocin-4-yl tert-butyl carbonate]
Degradation of parent compound / conversion to psilocin [1]: rapid and complete chemical degradation to psilocin within approximately four hours
Parent prodrug itself in serum (not detected, LOD) ([2]; serum after oral ingestion of about 1 mg): < 0.07 ng/mL
Cmax of psilocin [2, 8]: 1.13 ± 0.01 ng/mL
Tmax of psilocin [2, 8]: 1.5 ± 0.933 h
elimination constant kel of psilocin [2, 8]: 0.0043 min⁻¹
elimination half life t1/2 of psilocin [2, 8]: 2.67 h
c(Psilocin) ([2]; serum, test person A, oral P2 0.98 mg salt, 4 min, below LOQ, extrapolated): 0.16* ng/mL
c(Psilocin) ([2]; serum, test person A, oral P2 0.98 mg salt, 12 min, below LOQ, extrapolated): 0.16* ng/mL
c(Psilocin) ([2]; serum, test person A, oral P2 0.98 mg salt, 23 min, below LOQ, extrapolated): 0.21* ng/mL
c(Psilocin) ([2]; serum, test person A, oral P2 0.98 mg salt, 34 min, below LOQ, extrapolated): 0.22* ng/mL
c(Psilocin) ([2]; serum, test person A, oral P2 0.98 mg salt, 50 min): 0.43 ng/mL
c(Psilocin) ([2]; serum, test person A, oral P2 0.98 mg salt, 77 min): 0.57 ng/mL
c(Psilocin) ([2]; serum, test person A, oral P2 0.98 mg salt, 113 min): 0.99 ng/mL
c(Psilocin) ([2]; serum, test person A, oral P2 0.98 mg salt, 130 min): 1.14 ng/mL
c(Psilocin) ([2]; serum, test person A, oral P2 0.98 mg salt, 165 min): 0.96 ng/mL
c(Psilocin) ([2]; serum, test person A, oral P2 0.98 mg salt, 205 min): 0.83 ng/mL
c(Psilocin) ([2]; serum, test person A, oral P2 0.98 mg salt, 270 min): 0.66 ng/mL
c(Psilocin) ([2]; serum, test person A, oral P2 0.98 mg salt, 335 min): 0.47 ng/mL
c(Psilocin) ([2]; serum, test person A, oral P2 0.98 mg salt, 395 min): 0.40 ng/mL
c(Psilocin) ([2]; serum, test person A, oral P2 0.98 mg salt, 458 min, below LOQ, extrapolated): 0.30* ng/mL
c(Psilocin) ([2]; serum, test person B, oral P2 1.05 mg salt, 6 min, below LOQ, extrapolated): 0.24* ng/mL
c(Psilocin) ([2]; serum, test person B, oral P2 1.05 mg salt, 13 min, below LOQ, extrapolated): 0.26* ng/mL
c(Psilocin) ([2]; serum, test person B, oral P2 1.05 mg salt, 22 min): 0.48 ng/mL
c(Psilocin) ([2]; serum, test person B, oral P2 1.05 mg salt, 34 min): 0.75 ng/mL
c(Psilocin) ([2]; serum, test person B, oral P2 1.05 mg salt, 50 min): 1.12 ng/mL
c(Psilocin) ([2]; serum, test person B, oral P2 1.05 mg salt, 77 min): 1.12 ng/mL
c(Psilocin) ([2]; serum, test person B, oral P2 1.05 mg salt, 100 min): 0.92 ng/mL
c(Psilocin) ([2]; serum, test person B, oral P2 1.05 mg salt, 127 min): 0.73 ng/mL
c(Psilocin) ([2]; serum, test person B, oral P2 1.05 mg salt, 165 min): 0.53 ng/mL
c(Psilocin) ([2]; serum, test person B, oral P2 1.05 mg salt, 205 min): 0.51 ng/mL
c(Psilocin) ([2]; serum, test person B, oral P2 1.05 mg salt, 270 min): 0.40 ng/mL
c(Psilocin) ([2]; serum, test person B, oral P2 1.05 mg salt, 331 min): 0.33 ng/mL
c(Psilocin) ([2]; serum, test person B, oral P2 1.05 mg salt, 394 min, below LOQ, extrapolated): 0.30* ng/mL
c(Psilocin) ([2]; serum, test person B, oral P2 1.05 mg salt, 454 min, below LOQ, extrapolated): 0.29* ng/mL
Mean LogD [3]: 1.50
Mean number of head twitches 0-15 mins ([4]; N = 8): 3
Mean number of head twitches 15-30 mins ([4]; N = 8): 2
Mean number of head twitches 30-45 mins ([4]; N = 8): 1.5
Mean number of head twitches 45-60 mins ([4]; N = 8): 0.13
Mean number of head twitches Total 0-60 mins ([4]; N = 8): 6.48

CN(C)CCc1c[nH]c2cccc(OC(=O)OCc3ccccc3)c12 [Psilocin-4-yl-benzylcarbonate, psilocin-4-yl benzyl carbonate]
Mean LogD [5]: 2.19
Detected concentration [6]: 230 µM
Mean number of head twitches 0-15 mins ([4]; N = 8): 2.63
Mean number of head twitches 30-45 mins ([4]; N = 8): 1.88
Mean number of head twitches 45-60 mins ([4]; N = 8): 1.13
Mean number of head twitches Total 0-60 mins ([4]; N = 8): 8.2
Mean number of head twitches 15-30 mins ([4]; N = 8, 0.3 mg/kg): 4.13
Mean number of head twitches 15-30 mins ([4]; N = 8, listed as Psilocin-4-yl-benylcarbonate, 0.3 mg/kg): of similar magnitude to that induced by psilocybin
Cmax (psilocin) [7]: approximately double that of psilocybin
